The subject of data set [1] is DBTRG-05MG. Put plainly: Synergistic cytotoxicity against human DBTRG-05MG cells assessed as combination index at 134.9 uM after 48 hrs in presence of 309 uM TMZ by MTT assay. In kind it is functional.
Data set [2] relates to DBTRG-05MG. Put plainly: Induction of apoptosis in human DBTRG-05MG cells assessed as increase in DNA fragmentation at 112.4 uM after 48 hrs in presence of TMZ by TUNEL assay. The format is functional, cell-based.
For data set [3], the system named is DBTRG-05MG. Briefly: Synergistic cytotoxicity against human DBTRG-05MG cells assessed as synergistic effect index at 112.4 uM after 48 hrs in presence of 412.1 uM TMZ by MTT assay. In kind it is functional. On the technique in general: Tetrazolium dyes change colour on reduction, which living cells bring about.
Data set [4] relates to RG2. Briefly: Induction of apoptosis in rat RG2 cells assessed as cleaved caspace-3 expression at 112.4 uM after 48 hrs by Western blot analysis (reference value: 1). The format is functional. A general note: A western blot detects proteins with antibodies after separation by electrophoresis.
Data set [5] has as its system RG2. Put plainly: Synergistic cytotoxicity against rat RG2 cells assessed as synergistic effect index at 112.4 uM after 48 hrs in presence of 515.1 uM TMZ by MTT assay. The format is functional.
Data set [6] has as its system RG2. Briefly: Induction of apoptosis in rat RG2 cells assessed as Bcl2 expression at 112.4 uM after 48 hrs in presence of TMZ by Western blot analysis (reference value: 1). The format is functional.
Data set [7] is described as follows: Effect on JNK expression in human DBTRG-05MG cells at 112.4uM after 48 hrs by Western blot analysis (reference value: 1). In kind it is functional.
Data set [8] in a line: Synergistic cytotoxicity against rat CTX TNA2 cells assessed as combination index at 89.9 uM after 48 hrs in presence of 515.1 uM TMZ by MTT assay. In kind it is cell-based. The following applies: ctx tna2, 48 h.
A short description of data set [9]: Inhibition of TMZ-induced drug resistance in human DBTRG-05MG cells assessed as MGMT expression at 112.4 uM after 48 hrs by Western blot analysis (reference value: 1.3). In kind it is functional.
Data set [10] relates to DBTRG-05MG. Put plainly: Induction of cell cycle arrest in human DBTRG-05MG cells assessed as accumulation at S phase at 112.4 uM after 6 hrs in presence of TMZ by propidium iodide staining based flow cytometric analysis (reference value: 22.76 +/- 1.56%). The format is functional. For orientation: A flow cytometer gives signals particle by particle.
In data set [11] the test system is RG2. Put plainly: Induction of cell cycle arrest in rat RG2 cells assessed as accumulation at G2/M phase at 112.4 uM after 6 hrs in presence of TMZ by propidium iodide staining based flow cytometric analysis (reference value: 20.04 +/- 0.55%). The format is functional.
Data set [12] concerns RG2. Briefly: Induction of cell cycle arrest in rat RG2 cells assessed as accumulation at G0/G1 phase at 112.4 uM after 24 hrs by propidium iodide staining based flow cytometric analysis (reference value: 57.81 +/- 1.9%). In kind it is functional.
The subject of data set [13] is DBTRG-05MG. Briefly: Potentiation of TMZ-induced antitumor activity against human DBTRG-05MG cells xenografted in BALB/c nude mouse assessed as reduction in tumor growth at 75 mg/kg, sc co-treated with TMZ for 18 days by H and E staining-based bright field microscopic analysis. The format is functional, organism-based. The following applies: time 18.0 day.
For data set [14], the system named is RG2. Put plainly: Induction of apoptosis in rat RG2 cells assessed as cleaved PARP expression at 112.4 uM after 48 hrs by Western blot analysis (reference value: 1). The format is functional.
Data set [15] relates to DBTRG-05MG. Put plainly: Induction of DNA damage in human DBTRG-05MG cells assessed as ATR phosphorylation at ser428 residues at 112.4 uM after 48 hrs in presence of TMZ by Western blot analysis (reference value: 1). The format is functional.
Data set [16] concerns DBTRG-05MG. Put plainly: Induction of cell cycle arrest in human DBTRG-05MG cells assessed as accumulation at S phase at 112.4 uM after 6 hrs by propidium iodide staining based flow cytometric analysis (reference value: 22.76 +/- 1.56%). In kind it is functional.
In data set [17] the test system is RG2. Put plainly: Synergistic cytotoxicity against rat RG2 cells assessed as synergistic effect index at 89.9 uM after 48 hrs in presence of 103 uM TMZ by MTT assay. In kind it is functional.
Data set [18] deals with DBTRG-05MG. Put plainly: Synergistic cytotoxicity against human DBTRG-05MG cells assessed as combination index at 134.9 uM after 48 hrs in presence of 206 uM TMZ by MTT assay. In kind it is functional.
The subject of data set [19] is DBTRG-05MG. Briefly: Synergistic cytotoxicity against human DBTRG-05MG cells assessed as synergistic effect index at 89.9 uM after 48 hrs in presence of 103 uM TMZ by MTT assay. The format is functional.
Data set [20] concerns DBTRG-05MG. Briefly: Induction of cell cycle arrest in human DBTRG-05MG cells assessed as accumulation at G0/G1 phase at 112.4 uM after 48 hrs in presence of TMZ by propidium iodide staining based flow cytometric analysis (reference value: 47.16 +/- 1.55%). The format is functional.
The test system of data set [21] is RG2. Briefly: Synergistic cytotoxicity against rat RG2 cells assessed as combination index at 112.4 uM after 48 hrs in presence of 515.1 uM TMZ by MTT assay. The format is functional.
Data set [22] deals with RG2. Briefly: Synergistic cytotoxicity against rat RG2 cells assessed as combination index at 89.9 uM after 48 hrs in presence of 206 uM TMZ by MTT assay. The format is functional.
For data set [23], the system named is RG2. Briefly: Synergistic cytotoxicity against rat RG2 cells assessed as combination index at 134.9 uM after 48 hrs in presence of 515.1 uM TMZ by MTT assay. The format is functional.
Data set [24] in a line: Synergistic cytotoxicity against rat CTX TNA2 cells assessed as combination index at 134.9 uM after 48 hrs in presence of 309 uM TMZ by MTT assay. The format is cell-based. The following applies: ctx tna2, 48 h.
Data set [25] relates to DBTRG-05MG. Put plainly: Potentiation of TMZ-induced antitumor activity against human DBTRG-05MG cells xenografted in BALB/c nude mouse assessed as increase in survival time at 75 mg/kg, sc co-treated with TMZ for 18 days. The format is functional, organism-based. The following applies: time 18.0 day.
In data set [26] the test system is RG2. Put plainly: Synergistic cytotoxicity against rat RG2 cells assessed as combination index at 112.4 uM after 48 hrs in presence of 412.1 uM TMZ by MTT assay. In kind it is functional.
For data set [27], the system named is RG2. Briefly: Induction of cell cycle arrest in rat RG2 cells assessed as accumulation at G2/M phase at 206 uM after 12 hrs by propidium iodide staining based flow cytometric analysis (reference value: 20.04 +/- 0.55%). In kind it is functional.
A short description of data set [28]: Effect on ERK expression in human DBTRG-05MG cells at 206 uM after 48 hrs by Western blot analysis (reference value: 1). The format is functional.
The subject of data set [29] is DBTRG-05MG. Briefly: Induction of apoptosis in human DBTRG-05MG cells assessed as phosphorylated caspace-3 expression at 206 uM after 48 hrs by Western blot analysis (reference value: 1). The format is functional.
For data set [30], the system named is DBTRG-05MG. Put plainly: Induction of cell cycle arrest in human DBTRG-05MG cells assessed as CyclinD1 expression at 206 uM after 48 hrs by Western blot analysis (reference value: 1). The format is functional.
The test system of data set [31] is RG2. Put plainly: Inhibition of AKT phosphorylation at S473 residues in rat RG2 cells at 206 uM after 48 hrs by Western blot analysis. The format is cell-based.
Data set [32] has as its system RG2. Briefly: Induction of cell cycle arrest in rat RG2 cells assessed as accumulation at G0/G1 phase at 206 uM after 12 hrs by propidium iodide staining based flow cytometric analysis (reference value: 57.81 +/- 1.9%). The format is functional.
Data set [33] relates to DBTRG-05MG. Put plainly: Induction of apoptosis in human DBTRG-05MG cells assessed as increase in DNA fragmentation at 206 uM after 48 hrs by TUNEL assay. The format is functional, cell-based.
Data set [34] has as its system DBTRG-05MG. Briefly: Induction of cell cycle arrest in human DBTRG-05MG cells assessed as CDK2 expression at 206 uM after 48 hrs by Western blot analysis (reference value: 1). The format is functional.

Active and inactive are the calls of the source. The rule behind the calls is not given here.

Turning to `C[C@@H]1CC[C@H]2C(C)(C)[C@H]3C[C@@]12CC[C@@]3(C)O` [CEDROL], the CI in [1] worked out at 0.61; in data set [8] it was 0.89; in [18] it was 0.59; in data set [21], 1.06; in data set [22], 0.98; in [23] it was 1.02. Further, the results for the CI in data set [24] and in data set [26] were 1.13 and 0.99, respectively. Also, the outcome in data set [2], in data set [13] and in data set [25] was Active. Also, the Activity_index in data set [3] came to 0.86; in data set [5] it was 0.83; in data set [17], 0.65; in data set [19], 0.66. For the same compound, the “fold change (FC)” value in [4] was 1.6; in data set [6], 0.9; in data set [7], 0.8; in data set [9], 0.8; in [14], 1.4; in data set [15], 2.3. Besides, the Activity in [10] was found to be 18.29%; in [11], 19.39%; in data set [12] it was 72.5%; in data set [16] it was 16.38%; in data set [20] it was 41.16%.
Turning to `Cn1nnc2c(C(N)=O)ncn2c1=O` [TEMOZOLOMIDE], the figures for the Activity in [27] and in data set [32] were 28.32% and 49.55%, respectively. The “fold change (FC)” value in data set [28] was found to be 0.9; in [29], 1.3; in data set [30] it was 0.5; in data set [31] it was 0.5; in [34], 0.8. Further, the result in [33] was Active.

Source of the values: ChEMBL document CHEMBL4699511, “Cedrol, a Sesquiterpene Alcohol, Enhances the Anticancer Efficacy of Temozolomide in Attenuating Drug Resistance via Regulation of the DNA Damage Response and MGMT Expression” (J Nat Prod, 2020).
